According to patent US20090042726A1, “Novel Herbicides” (SYNGENTA LIMITED, priority 2005, published 2009):

Tested on: Monocotyledonous and dicotyledonous test plants
Test: Herbicidal action, application pre-emergence (Example B1)
Assay type: in vivo
Set-up: key: 10=total damage to plant; 0=no damage to plant
Details: 1000 g/ha, evaluated after 9 or 13 days; for AGSTE herbicidal action (damage score 0-10): Agrostis-tenius; for AMARE herbicidal action (damage score 0-10): Amaranthus retroflexus; for DIGSA herbicidal action (damage score 0-10): Digitaria sanguinalis; for POATR herbicidal action (damage score 0-10): Poa trivialis; for SETIT herbicidal action (damage score 0-10): Setaria italica
Protocol: Monocotyledonous and dicotyledonous test plants were sown in sterilised standard soil in seed trays each having 96 cells. After one day (pre-emergence) under controlled conditions in a climatic chamber (cultivation at 23/17° C., day/night; 13 hours light; 50-60% humidity; after application at 24/19° C., day/night), the plants were treated with an aqueous spray solution of 1000 mg/l of the active ingredient used (including 10% DMSO as solvent). The plants were grown on in the climatic chamber until the test was evaluated (10=total damage to plant, 0=no damage to plant) after 9 or 13 days.

## C=CCn1nc(C[S+]([O-])C2=NOC(C)(C)C2F)c(C(F)(F)F)n1 (single isomer, unassigned) [7.08]
  AGSTE herbicidal action (damage score 0-10): 10
  AMARE herbicidal action (damage score 0-10): 10
  DIGSA herbicidal action (damage score 0-10): 10
  POATR herbicidal action (damage score 0-10): 10

## Cn1nc(C[S+]([O-])C2=NOC(C)(C)C2F)c(C(F)(F)F)c1C#N (single isomer, unassigned) [4.07]
  AGSTE herbicidal action (damage score 0-10): 10
  AMARE herbicidal action (damage score 0-10): 9
  DIGSA herbicidal action (damage score 0-10): 9
  POATR herbicidal action (damage score 0-10): 10

## Cc1nn(C(C)C)nc1C[S+]([O-])C1=NOC(C)(C)C1F (mixture of isomers) [7.38]
  AGSTE herbicidal action (damage score 0-10): 10
  AMARE herbicidal action (damage score 0-10): 6
  DIGSA herbicidal action (damage score 0-10): 7
  POATR herbicidal action (damage score 0-10): 7

## Cc1nn(C)c(OCC(F)(F)F)c1C[S+]([O-])C1=NOC(C)(C)C1F (single isomer, unassigned) [2.61]
  AGSTE herbicidal action (damage score 0-10): 10
  AMARE herbicidal action (damage score 0-10): 6
  DIGSA herbicidal action (damage score 0-10): 9
  POATR herbicidal action (damage score 0-10): 4

## Cc1nc(C[S+]([O-])C2=NOC(C)(C)C2F)n(C)n1 (single isomer, unassigned) [8.02]
  AGSTE herbicidal action (damage score 0-10): 10
  AMARE herbicidal action (damage score 0-10): 4
  DIGSA herbicidal action (damage score 0-10): 10
  POATR herbicidal action (damage score 0-10): 10

## Cn1nc(CS(=O)(=O)C2=NOC(C)(C)C2F)c(C(F)(F)F)c1C#N (stereo not drawn) [4.09]
  AGSTE herbicidal action (damage score 0-10): 10
  AMARE herbicidal action (damage score 0-10): 9
  DIGSA herbicidal action (damage score 0-10): 7
  POATR herbicidal action (damage score 0-10): 4

## Cn1nc(OC(F)F)c(C[S+]([O-])C2=NOC(C)(C)C2F)c1C(F)(F)F (single isomer, unassigned) [2.30]
  AGSTE herbicidal action (damage score 0-10): 10
  AMARE herbicidal action (damage score 0-10): 9
  DIGSA herbicidal action (damage score 0-10): 10
  POATR herbicidal action (damage score 0-10): 9
  SETIT herbicidal action (damage score 0-10): 9

## Cc1nn(C)nc1CS(=O)(=O)C1=NOC(C)(C)C1F (stereo not drawn) [7.04]
  AGSTE herbicidal action (damage score 0-10): 10
  AMARE herbicidal action (damage score 0-10): 10
  DIGSA herbicidal action (damage score 0-10): 10
  POATR herbicidal action (damage score 0-10): 10
  SETIT herbicidal action (damage score 0-10): 9

## CC(c1c(C(F)(F)F)nn(C)c1OCC(F)(F)F)S(=O)(=O)C1=NOC(C)(C)C1F (mixture of isomers) [Compound No. 2.12]
  AGSTE herbicidal action (damage score 0-10): 10
  AMARE herbicidal action (damage score 0-10): 6
  DIGSA herbicidal action (damage score 0-10): 9
  POATR herbicidal action (damage score 0-10): 10
  SETIT herbicidal action (damage score 0-10): 9

## CCn1ncc(CSC2=NOC(C)(C)C2F)n1 (stereo not drawn) [Compound No. 7.34]
  AGSTE herbicidal action (damage score 0-10): 9
  AMARE herbicidal action (damage score 0-10): 6
  DIGSA herbicidal action (damage score 0-10): 8
  POATR herbicidal action (damage score 0-10): 8

## CCn1cc(CS(=O)(=O)C2=NOC(C)(C)C2F)c(C(F)(F)F)n1 (stereo not drawn) [2.47]
  AGSTE herbicidal action (damage score 0-10): 10
  AMARE herbicidal action (damage score 0-10): 10
  DIGSA herbicidal action (damage score 0-10): 9
  POATR herbicidal action (damage score 0-10): 10

## Cn1nc(C(F)(F)F)cc1C[S+]([O-])C1=NOC(C)(C)C1F (mixture of isomers) [6.03]
  AGSTE herbicidal action (damage score 0-10): 10
  AMARE herbicidal action (damage score 0-10): 8
  DIGSA herbicidal action (damage score 0-10): 9
  POATR herbicidal action (damage score 0-10): 10

## Cn1nc(C(F)(F)F)c(CS(=O)(=O)C2=NOC(C)(C)C2F)c1F (stereo not drawn) [2.56]
  AGSTE herbicidal action (damage score 0-10): 10
  AMARE herbicidal action (damage score 0-10): 10
  DIGSA herbicidal action (damage score 0-10): 10
  POATR herbicidal action (damage score 0-10): 10

## Cn1nc(C[S+]([O-])C2=NOC(C)(C)C2F)c(C(F)(F)F)n1 (stereo not drawn) [7.43]
  AGSTE herbicidal action (damage score 0-10): 10
  AMARE herbicidal action (damage score 0-10): 10
  DIGSA herbicidal action (damage score 0-10): 10
  POATR herbicidal action (damage score 0-10): 10

## Cn1cc(C(F)(F)F)c(CS(=O)(=O)C2=NOC(C)(C)C2F)n1 (stereo not drawn) [4.03, 3-(4-fluoro-5,5-dimethyl-4,5-dihydro-isoxazol-3-ylsulfonylmethyl)-1-methyl-4-trifluoromethyl-1H-pyrazole]
  AGSTE herbicidal action (damage score 0-10): 10
  AMARE herbicidal action (damage score 0-10): 8
  DIGSA herbicidal action (damage score 0-10): 10
  POATR herbicidal action (damage score 0-10): 10
  SETIT herbicidal action (damage score 0-10): 7

## CC(c1nn(C)cc1C(F)(F)F)S(=O)(=O)C1=NOC(C)(C)C1F (stereo not drawn) [4.04, 3-(1-(4-fluoro-5,5-dimethyl-4,5-dihydro-isoxazol-3-ylsulfonyl)-eth-1 yl)-1-methyl-4-trifluoromethyl-1H-pyrazole]
  AGSTE herbicidal action (damage score 0-10): 10
  AMARE herbicidal action (damage score 0-10): 9
  DIGSA herbicidal action (damage score 0-10): 9
  POATR herbicidal action (damage score 0-10): 8
  SETIT herbicidal action (damage score 0-10): 9

## COc1cc(C[S+]([O-])C2=NOC(C)(C)C2F)n(C)n1 (mixture of isomers) [6.12]
  AGSTE herbicidal action (damage score 0-10): 10
  AMARE herbicidal action (damage score 0-10): 10
  DIGSA herbicidal action (damage score 0-10): 10
  POATR herbicidal action (damage score 0-10): 10

## Cn1ncc(C[S+]([O-])C2=NOC(C)(C)C2F)n1 (mixture of isomers) [7.22]
  AGSTE herbicidal action (damage score 0-10): 9
  AMARE herbicidal action (damage score 0-10): 0
  DIGSA herbicidal action (damage score 0-10): 8
  POATR herbicidal action (damage score 0-10): 9

## CC1(C)ON=C(S(=O)(=O)Cc2cccnc2Cl)C1F (stereo not drawn) [3.06]
  AGSTE herbicidal action (damage score 0-10): 10
  AMARE herbicidal action (damage score 0-10): 8
  DIGSA herbicidal action (damage score 0-10): 0
  POATR herbicidal action (damage score 0-10): 10

## Cn1nc(OC(F)F)c(C[S+]([O-])C2=NOC(C)(C)C2F)c1C(F)(F)F (single isomer, unassigned) [2.29]
  AGSTE herbicidal action (damage score 0-10): 9
  AMARE herbicidal action (damage score 0-10): 8
  DIGSA herbicidal action (damage score 0-10): 0
  POATR herbicidal action (damage score 0-10): 10
  SETIT herbicidal action (damage score 0-10): 9

## CC1(C)ON=C(S(=O)(=O)Cc2ccccc2OC(F)(F)F)C1F (stereo not drawn) [1.11]
  AGSTE herbicidal action (damage score 0-10): 10
  AMARE herbicidal action (damage score 0-10): 7
  DIGSA herbicidal action (damage score 0-10): 10
  POATR herbicidal action (damage score 0-10): 10
  SETIT herbicidal action (damage score 0-10): 8

## Cn1nc(C(F)(F)F)cc1CS(=O)(=O)C1=NOC(C)(C)C1F (stereo not drawn) [6.04]
  AGSTE herbicidal action (damage score 0-10): 10
  AMARE herbicidal action (damage score 0-10): 9
  DIGSA herbicidal action (damage score 0-10): 9
  POATR herbicidal action (damage score 0-10): 10

## Cn1nc(C(F)(F)F)c(C[S+]([O-])C2=NOC(C)(C)C2Br)c1OCC(F)(F)F (mixture of isomers) [2.02]
  AGSTE herbicidal action (damage score 0-10): 10
  AMARE herbicidal action (damage score 0-10): 7
  DIGSA herbicidal action (damage score 0-10): 10
  POATR herbicidal action (damage score 0-10): 5
  SETIT herbicidal action (damage score 0-10): 7

## CC1(C)ON=C([S+]([O-])Cc2cccnc2Cl)C1F (mixture of isomers) [3.05]
  AGSTE herbicidal action (damage score 0-10): 9
  AMARE herbicidal action (damage score 0-10): 10
  DIGSA herbicidal action (damage score 0-10): 8
  POATR herbicidal action (damage score 0-10): 10

## C#CCn1cc(C[S+]([O-])C2=NOC(C)(C)C2F)c(C(F)(F)F)n1 (mixture of isomers) [2.49]
  AGSTE herbicidal action (damage score 0-10): 10
  AMARE herbicidal action (damage score 0-10): 10
  DIGSA herbicidal action (damage score 0-10): 10
  POATR herbicidal action (damage score 0-10): 10
